Measurements published in patent publication US20240065998A1, “MONOACYLGLYCEROL AND FREE FATTY ACID-BASED COMPOSITIONS, METHODS OF MANUFACTURING AND USE OF THE SAME” (priority 2021, published 2024).
Like-named read-outs stand apart in the source and are kept apart here.

What was measured:
[1] = system: Respiratory syncytial virus (RSV, A2); format: cell-based; settings: 70%, 2 min, 37 ± 2° C.; for LRV: VC titer 3.3
[2] = system: SARS-CoV-2, USA_WA1/2020; format: cell-based; settings: 70%, 2 min, 37 ± 2° C.
[3] = system: Herpes simplex-1 (HSV-1, H1KOS S1); assay: Virucidal assay, 2 minute contact, end-point dilution (CCID50, LRV); format: cell-based; settings: 70%, 2 min, 37 ± 2° C.
[4] = system: titer assay cells (MA-104, Vero E6, Vero 76)
[5] = cited from earlier work; for HLB: exemplary HLB value of the single emulsifier
[6] = system: Respiratory Syncytial Virus (RSV), Herpes Simplex Virus (HSV), H1N1 flu virus, and SARS-CoV-2; format: cell-based; settings: nEMO at 0.5 to 50 mg/mL, EtOH 70%
Source text: Table 73 below provides formulations of a nEMO sanitizer with 0.5% nEMO, 29.5% glycerol, and 70% […].

[7] = HLB values of compositional components; settings: share in the oil phase of ACv14 (% of oil phase x rHLB); Total = sum
Source text: HLB is typically considered when planning oil-in-water cream formulations according to the requirements of the cream.
If the Oat EMO is omitted and the Flax FFA oil raised, then a higher rHLB is required, meaning that a larger percentage of the emulsifier can be high HLB (S-20). This 0% Oat MAG (EMO) and 4% Flaxseed FFA oil combo gives an rHLB value of 12.64, which would coincide with a 25/75 ratio of S-2/S-20 or Monolaurin/S-20. This would minimize the amount of S-2 which caused larger coalescence at a 1:1 ratio overnight.

CCO [Ethanol]
Virus Titer ([1]; Table 57A): <0.7 log10 CCID50 of virus per 0.1 mL
LRV ([1]; Table 57A): >2.6
Virus Titer ([1]; Table 57B): <0.7 log10 CCID50 of virus per 0.1 mL
LRV ([1]; Table 57B): >2.6
Virus Titer ([2]; Table 59A): <0.7 log10 CCID50 of virus per 0.1 mL
LRV ([2]; Table 59A, VC titer 5.3): >4.6
Virus Titer ([2]; Table 59B): <0.7 log10 CCID50 of virus per 0.1 mL
LRV ([2]; Table 59B, VC titer 5.0): >4.3
LRV ([3]; Table 60A, VC titer 4.5): >3.8
LRV ([3]; Table 60B, VC titer 5.0): >4.3
Toxicity (highest dilution of the endpoint titer with full (80-100%) cytotoxicity) [4]: None

Steareth-2
HLB [5]: 4.9

Glyceryl Stearate SE
HLB [5]: 5.8

CCO [EtOH]
Virucidal Activity ([6]; H1N1, Log10 of initial virus concentration 5.7): >99.99%
Virucidal Activity ([6]; HSV, Log10 of initial virus concentration 5): >99.99%
Virucidal Activity ([6]; RSV, Log10 of initial virus concentration 3.3): >99%
Virucidal Activity ([6]; SARS-COV-2, Log10 of initial virus concentration 5): >99.99%

CCCCCCCCCCCCCCCCO [Cetyl Alcohol]
rHLB of oil percentage [7]: 3.69
Required HLB (rHLB) ([5]; exemplary value of the oil phase component): 15.5

CCCCCCCCCCCC(=O)OCC(O)CO (centres unmarked) [Glyceryl Laurate]
HLB [5]: 5.2
